Measurements published in patent publication US20260063623A1, “METHODS OF ASSESSING METABOLIC FLUX” (The Regents of the University of Michigan, priority 2022, published 2026).
Like-named read-outs stand apart in the source and are kept apart here.

Assays:
[1] = system: inosine monophosphate dehydrogenase (IMPDH); settings: mice models, combined with radiation; cited from earlier work
[2] = system: de novo GMP synthesis (IMPDH); assay: Machine learning prediction of de novo GMP synthesis ratio in MMF treated vs control GBM PDXs infused with U13C glucose; assay type: in vivo; settings: MMF treated GBM PDX mice vs control PDXs, from measured enrichment patterns
Text: To generate data used for flux modeling, patient-derived xenografts (PDXs) from human glioblastomas are implanted into the brains of immunodeficient mice. PDXs are transduced with luciferase and EGFP prior for imaging and physical separation from brain tissue, respectively. Once brain tumors are established, mice are cannulated for infusions, treatments, and blood sampling. One catheter is surgically placed into the jugular vein of anesthetized recipient mice, and a second line is placed into the carotid artery. In experiments in which mice are to receive oral administration of MMF or vehicle, a third catheter is directed to the stomach. […] Brain tumors are separated from healthy brain tissue by fluorescence-guided microdissection. […] Small molecules from solid tissues and plasma are extracted and samples are analyzed by liquid chromatography-mass spectrometry (LC-MS) to identify the metabolites and their labeling patterns (FIG. 1A).
To train machine learning models that can predict the ratio of de novo synthesis of GMP to the overall GMP synthesis, simulated MIDs were used as input features. […] A machine learning model with a good evaluation score on a test dataset should be also evaluated on some experimental value for further validation. […] By measuring the MIDs in these two groups, the de novo GMP ratio can be calculated using the INST-MFA method and compared to machine learning results. […]

[3] = design: species or system mice; settings: mouse, in vivo
Text: At approximately 1-2 weeks before expected death related to brain tumors (˜3 weeks post-implant), intracranial GBM-bearing mice underwent dual catheterizations, with one catheter surgically placed into the jugular vein (for [U^13C]-glucose administration) and a second catheter placed into the carotid artery (for plasma collection during infusion). Mice were then allowed to recover from surgery for 4-5 days. In studies assessing the influence of RT on metabolism, cannulated mice were anesthetized by 2% isoflurane inhalation and then treated with cranially directed RT at a dose of 8 Gy or sham RT with a lead shield keeping the cranium […]. […]
Flash-frozen tissue samples were homogenized in cold (−80° C.) 80% methanol. […] Isotope labeling was determined using an Agilent system consisting of an Infinity Lab II UPLC coupled with a 6545 QTOF mass spectrometer (Agilent Technologies, Santa Clara, CA), and data were analyzed with values corrected for natural isotope abundance using MassHunter Profinder 10.0. […] To determine relative metabolite abundances in tissues and plasma from control or Ser/Gly (−) diet fed mice, samples were prepared as described above and then analyzed with an Agilent 1290 Infinity II LC-6470 Triple Quadrupole tandem mass spectrometer system (Agilent Technologies, Santa Clara, CA). […]

[4] = human, in vivo
Method: Eight patients with suspected GBM were recruited to the IRB-approved clinical study, which was performed perioperatively with standard-of-care craniotomies. Near the start of each procedure (approximately 2-4 hours prior to tissue resection), patients received a bolus intravenous dose of [U^13C]-glucose (8 g) followed by a continuous intravenous infusion of [U^13C]-glucose at a rate of 4 g/h. Arterial blood was collected into EDTA-coated vials every 30-60 min for plasma preparation and analysis until solid tissues of interest were harvested from each patient. […]
Flash-frozen tissue samples were homogenized in cold (−80° C.) 80% methanol. […] Isotope labeling was determined using an Agilent system consisting of an Infinity Lab II UPLC coupled with a 6545 QTOF mass spectrometer (Agilent Technologies, Santa Clara, CA), and data were analyzed with values corrected for natural isotope abundance using MassHunter Profinder 10.0. […] To determine relative metabolite abundances in tissues and plasma from control or Ser/Gly (−) diet fed mice, samples were prepared as described above and then analyzed with an Agilent 1290 Infinity II LC-6470 Triple Quadrupole tandem mass spectrometer system (Agilent Technologies, Santa Clara, CA). For compound optimization, calibration, and data acquisition, Agilent MassHunter Quantitative Analysis Software version B.08.02 was used.

Molecule	radiation outcomes [1]	de novo GMP synthesis ratio (de novo to overall GMP synthesis) predicted by machine learning model [2]	time to arterial steady state of labeled glucose [3]	time to arterial steady state of labeled glucose [4]
COc1c(C)c2c(c(O)c1C/C=C(\C)CCC(=O)OCCN1CCOCC1)C(=O)OC2 [MMF, mycophenolate mofetil]	improves radiation outcomes	lower de novo GMP synthesis ratio	–	–
[U^13C]-glucose	–	–	≤ 30 min	approximately 30 minutes
